Measurements: patent publication US4617994A, “Determining residual oil saturation by injecting CO2 and base generating reactant” (priority 1985, dated 1986)
Like-named read-outs stand apart in the source and are kept apart here.

Format: physicochemical
[1] = 206 °F, pH 6.0, 50 psig, 0.5 M/L NaCl, 0.05 mol/liter base generator
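Also: hydrolysis of the base generator in aqueous solution, t1/2 given in hours as the time until half of it has reacted, with pH held steady during the run.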

Source text: In each case, the solution was maintained at a pressure of 50 psig during the test. The pH of the solution was maintained substantially constant by adding portions at 0.1 mol/liter sodium bicarbonate solution to the system while the hydrolysis was proceeding. Each base generator solution consisted of water containing 0.5 mol/liter sodium chloride and 0.05 mols/liter of the base generator.
*^1 This is the time, in hours, required for the base generator to be
This is a convenient way to measure the speed of a reaction.

CC1CO1 (stereo not shown) [Propylene oxide, Propylene Oxide]
Half Life, t1/2 (76 °F, pH 7.0, 50 psig, 0.5 M/L NaCl, 0.05 mol/liter base generator): 86.1 h
Half Life, t1/2 (106 °F, pH 6.0, 50 psig, 0.5 M/L NaCl, 0.05 mol/liter base generator): 26.5 h
Half Life, t1/2 (122 °F, pH 6.0, 50 psig, 0.5 M/L NaCl, 0.05 mol/liter base generator): 26.0 h
Half Life, t1/2 (122 °F, pH 7.0, 50 psig, 0.5 M/L NaCl, 0.05 mol/liter base generator): 35.6 h

O=C1C=CC(=O)N1 [Maleimide]
Half Life, t1/2 (76 °F, pH 6.0, 50 psig, 0.5 M/L NaCl, 0.05 mol/liter base generator): 450.1 h
Half Life, t1/2 (96 °F, pH 6.0, 50 psig, 0.5 M/L NaCl, 0.05 mol/liter base generator): 53.6 h
Half Life, t1/2 (109 °F, pH 6.0, 50 psig, 0.5 M/L NaCl, 0.05 mol/liter base generator): 92.0 h
Half Life, t1/2 (109 °F, pH 7.0, 50 psig, 0.5 M/L NaCl, 0.05 mol/liter base generator): 35.0 h
Half Life, t1/2 (110 °F, pH 5.5, 50 psig, 0.5 M/L NaCl, 0.05 mol/liter base generator): 439.0 h
Half Life, t1/2 (110 °F, pH 6.5, 50 psig, 0.5 M/L NaCl, 0.05 mol/liter base generator): 43.8 h
Half Life, t1/2 (140 °F, pH 6.0, 50 psig, 0.5 M/L NaCl, 0.05 mol/liter base generator): 18.4 h
Half Life, t1/2 [1]: too fast

O=C1CCC(=O)N1 [Succinimide]
Half Life, t1/2 (177 °F, pH 6.0, 50 psig, 0.5 M/L NaCl, 0.05 mol/liter base generator): 184.1 h
Half Life, t1/2 (177 °F, pH 7.0, 50 psig, 0.5 M/L NaCl, 0.05 mol/liter base generator): 28.4 h
Half Life, t1/2 [1]: 31.3 h

NC(N)=O [Urea]
Half Life, t1/2 (0.5 m nacl water, pH 5.5): 8.4 h
Half Life, t1/2 (0.5 m nacl water, pH 6.2): 12.3 h
Half Life, t1/2 (0.5 m nacl water, pH 7): 45.2 h
Half Life, t1/2 (0.5 m nacl water, pH 8): 15.9 h

N#CO [KOCN, Potassium Cyanate]
Half Life, t1/2 (78 °F, pH 6.0, 50 psig, 0.5 M/L NaCl, 0.05 mol/liter base generator): 19.6 h
Half Life, t1/2 (78 °F, pH 6.5, 50 psig, 0.5 M/L NaCl, 0.05 mol/liter base generator): 68.6 h
Half Life, t1/2 (78 °F, pH 7.0, 50 psig, 0.5 M/L NaCl, 0.05 mol/liter base generator): 206.4 h
Half Life, t1/2 (99 °F, pH 7.0, 50 psig, 0.5 M/L NaCl, 0.05 mol/liter base generator): ~ 94.0 hours
Half Life, t1/2 (99 °F, pH 7.5, 50 psig, 0.5 M/L NaCl, 0.05 mol/liter base generator): ~ 223.0 hours
Half Life, t1/2 (116 °F, pH 8.0, 50 psig, 0.5 M/L NaCl, 0.05 mol/liter base generator): ~ 223.0 hours

O=N[O-].[Na+] [NaNO2, Sodium Nitrite]
Half Life, t1/2 (212 °F, pH 6.0, 50 psig, 0.5 M/L NaCl, 0.05 mol/liter base generator): 80.0 h
Half Life, t1/2 (279 °F, pH 5.5, 50 psig, 0.5 M/L NaCl, 0.05 mol/liter base generator): 17.5 h
Half Life, t1/2 (279 °F, pH 6.0, 50 psig, 0.5 M/L NaCl, 0.05 mol/liter base generator): 49.2 h
Half Life, t1/2 (279 °F, pH 7.0, 50 psig, 0.5 M/L NaCl, 0.05 mol/liter base generator): 141.4 h
Half Life, t1/2 (280 °F, pH 6.5, 50 psig, 0.5 M/L NaCl, 0.05 mol/liter base generator): 84.9 h
Half Life, t1/2 (296 °F, pH 6.5, 50 psig, 0.5 M/L NaCl, 0.05 mol/liter base generator): 73.2 h
